Assay [1] concerns the target T1, Nuclear receptor ROR-gamma (Homo sapiens, UniProt P51449).
T1 sequence (P51449 whole entry): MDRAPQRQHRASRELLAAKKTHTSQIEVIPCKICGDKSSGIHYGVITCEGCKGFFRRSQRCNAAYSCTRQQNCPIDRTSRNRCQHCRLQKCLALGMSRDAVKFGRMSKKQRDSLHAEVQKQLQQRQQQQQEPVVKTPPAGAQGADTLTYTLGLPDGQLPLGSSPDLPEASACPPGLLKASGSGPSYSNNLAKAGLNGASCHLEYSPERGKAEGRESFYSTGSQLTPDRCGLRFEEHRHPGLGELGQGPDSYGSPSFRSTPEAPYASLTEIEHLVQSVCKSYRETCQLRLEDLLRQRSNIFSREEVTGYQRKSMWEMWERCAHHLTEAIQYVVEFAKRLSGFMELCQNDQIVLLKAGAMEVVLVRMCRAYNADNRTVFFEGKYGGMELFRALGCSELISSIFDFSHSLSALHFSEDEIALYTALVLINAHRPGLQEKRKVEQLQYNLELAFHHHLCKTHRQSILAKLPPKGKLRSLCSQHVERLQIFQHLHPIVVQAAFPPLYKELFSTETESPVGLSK
Description: Inverse agonist activity against human RORgammat by FRET assay.

Assay [2] concerns the target T1, Nuclear receptor ROR-gamma. Description: Displacement of 25-[26,27-3H2]-hydroxycholesterol from RORgammat (unknown origin) assessed as inhibition constant by scintillation proximity assay. (In general: Scintillation proximity formats need no separation of bound from free tracer.)

What is called IC50 is the concentration that gives 50% inhibition. The low end stands for higher potency, the high end for lower potency. `Cc1ccc([C@@H](NC(=O)Cc2ccc3oc(C(O)c4c(C)noc4C)cc3c2)c2ccccc2)c(C)c1` (stereo partly drawn) yielded an IC50 in assay [1] of 5 nM.

For the compound `Cc1ccc(C(NC(=O)Cc2ccc(OCc3c(C)noc3C)cc2)c2ccccc2)c(C)c1` (stereo not drawn), in assay [1], the IC50 turned out to be 3 nM.

A word on the Ki: it is a dissociation constant, usually derived from enzyme kinetics or from competition with a known ligand. `CCS(=O)(=O)c1ccc(CC(=O)Nc2cnc3c(c2)CN(C[C@H]2CC[C@H](C(F)(F)F)CC2)[C@H]3C(C)C)nc1`: the Ki in assay [2] was determined as 3.7 nM.

For the origin of these results see ChEMBL document CHEMBL5223085, “Agonist Lock Touched and Untouched Retinoic Acid Receptor-Related Orphan Receptor-γt (RORγt) Inverse Agonists: Classification Based on the Molecular Mechanisms of Action” (J Med Chem, 2021).
